{
  "source": "patent US20210038669A1",
  "about": "“Composition(s) for Topically Treating Pain” (priority 2016, published 2021)",
  "origin": "cited, not measured here",
  "test_system": "neuropathic pain conditions (postherpetic neuralgia, trigeminal, postsurgical or post-traumatic neuralgia)",
  "conditions": "5% patch, 5% cream, 5% gel, 8% spray; all but one study; third tier (very low quality) evidence",
  "data": [
    {"smiles": "CCN(CC)CC(=O)Nc1c(C)cccc1C", "note": "[lidocaine, Lidocaine]", "values": [
      {"measurement": "pain relief versus placebo", "result": "better than placebo"}
    ]}
  ]
}
